Assay results reported in patent US10131652B2, “Pyrimidinyloxy benzene derivatives as herbicides” (E. I. DU PONT DE NEMOURS AND COMPANY, priority 2014, dated 2018).

How the values were obtained:
Format in all cases: in vivo
[1] = test system: barnyardgrass (Echinochloa crus-galli); assay: Test C flooded paddy test plant response; conditions: Flood, 250 g ai/ha; scale of 0 to 100 where 0 is no effect and 100 is complete control; 13 to 15 days
How it was run: (§1)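 Water-applied treatment: compounds go directly into floodwater standing 3 cm over the soil of pots holding 2-leaf-stage plants. Depth is kept constant; plants stay in a greenhouse 13 to 15 days before visual comparison with controls on a 0–100 scale.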

[2] = test system: small-flower umbrella sedge (Cyperus difformis); assay: Test C flooded paddy test plant response; conditions: Flood, 250 g ai/ha; scale of 0 to 100 where 0 is no effect and 100 is complete control; 13 to 15 days
How it was run: as §1

[3] = test system: rice (Oryza sativa); assay: Test C flooded paddy test plant response; conditions: Flood, 250 g ai/ha; scale of 0 to 100 where 0 is no effect and 100 is complete control; 13 to 15 days
How it was run: as §1

[4] = test system: ducksalad (Heteranthera limosa); assay: Test C flooded paddy test plant response; conditions: Flood, 250 g ai/ha; scale of 0 to 100 where 0 is no effect and 100 is complete control; 13 to 15 days
How it was run: as §1

[5] = test system: galium (catchweed bedstraw, Galium aparine); assay: Test B postemergence plant response
How it was run: (§2)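 Visual injury rating, 0–100 (0 = no effect, 100 = complete control), vs untreated controls ~10 days after postemergence spray; greenhouse; potted loam soil/sand; plants 2–10 cm, 1–2 leaf stage.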

[6] = test system: blackgrass (Alopecurus myosuroides); assay: Test B postemergence plant response
How it was run: as §2

[7] = test system: kochia (Kochia scoparia); assay: Test B pre-/postemergence plant response
How it was run: (§3)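 Steps: plant seeds in loam soil–sand mix; spray soil preemergence, and in parallel spray 2–10 cm one- to two-leaf plants postemergence; hold ~10 days in greenhouse; visually rate injury against untreated controls (0 = no effect, 100 = complete control).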

[8] = test system: barnyardgrass (Echinochloa crus-galli); assay: Test B pre-/postemergence plant response
How it was run: as §3

[9] = test system: ragweed (common ragweed, Ambrosia elatior); assay: Test B pre-/postemergence plant response
How it was run: as §3

[10] = test system: pigweed (Amaranthus retroflexus); assay: Test B pre-/postemergence plant response
How it was run: as §3

[11] = test system: Italian ryegrass (Lolium multiflorum); assay: Test B pre-/postemergence plant response
How it was run: as §3

[12] = test system: giant foxtail (Setaria faberii); assay: Test B pre-/postemergence plant response
How it was run: as §3

[13] = test system: wheat (Triticum aestivum); assay: Test B pre-/postemergence plant response
How it was run: as §3

[14] = test system: corn (Zea mays); assay: Test B pre-/postemergence plant response
How it was run: as §3

[15] = 125 g ai/ha, postemergence, 0 to 100 scale, 0 no effect, 100 complete control
[16] = Postemergence, 31 g ai/ha, 0 to 100 scale (0 no effect, 100 complete control)
[17] = 31 g ai/ha, Preemergence, 0 to 100 scale where 0 is no effect and 100 is complete control
[18] = Preemergence, 125 g ai/ha, 0 to 100 scale (0 no effect, 100 complete control)
[19] = 500 g ai/ha, postemergence, 0 to 100 scale, 0 no effect, 100 complete control
[20] = Preemergence, 500 g ai/ha, 0 to 100 scale where 0 is no effect and 100 is complete control

Compound	Barnyardgrass plant response rating [1]	Sedge, Umbrella plant response rating [2]	Rice plant response rating [3]	Ducksalad plant response rating [4]	Plant response rating, Galium [5, 15]	Plant response rating, Blackgrass [6, 15]	Plant response rating, Kochia [7, 15]	Kochia plant response rating [7, 18]	Plant response rating, Barnyardgrass [8, 15]	Barnyardgrass plant response rating [8, 18]	Plant response rating, Ragweed [9, 15]	Ragweed plant response rating [9, 18]	Plant response rating, Pigweed [10, 15]	Pigweed plant response rating [10, 18]	Plant response rating, Ryegrass, Italian [11, 15]	Ryegrass, Italian plant response rating [11, 18]	Plant response rating, Foxtail, Giant [12, 15]	Foxtail, Giant plant response rating [12, 18]	Plant response rating, Wheat [13, 15]	Plant response rating, Corn [14, 15]	also measured
Clc1cnc(Oc2ccccc2-c2cocn2)nc1 [Compound 214]	0	0	0	0	10	0	0	0	0	0	0	0	10	0	0	0	0	0	0	0	Plant response rating, Galium [5, 16]: 0; Plant response rating, Blackgrass [6, 16]: 0; Plant response rating, Kochia [7, 17]: 0; Plant response rating, Kochia [7, 16]: 0; Plant response rating, Barnyardgrass [8, 17]: 0; Plant response rating, Barnyardgrass [8, 16]: 0; Plant response rating, Ragweed [9, 17]: 0; Plant response rating, Ragweed [9, 16]: 0; Plant response rating, Pigweed [10, 17]: 0; Plant response rating, Pigweed [10, 16]: 0; Plant response rating, Ryegrass, Italian [11, 17]: 0; Plant response rating, Ryegrass, Italian [11, 16]: 0; Plant response rating, Foxtail, Giant [12, 17]: 0; Plant response rating, Foxtail, Giant [12, 16]: 0; Plant response rating, Wheat [13, 16]: 0; Plant response rating, Corn [14, 16]: 0
CC(=O)c1cc(-c2ccccc2Oc2ncc(Cl)cn2)no1 [Compound 215]	0	0	0	0	20	0	0	0	20	40	0	0	20	20	0	0	20	20	0	20	Plant response rating, Galium [5, 19]: 70; Plant response rating, Blackgrass [6, 19]: 40; Plant response rating, Kochia [7, 19]: 10; Plant response rating, Kochia [7, 20]: 0; Plant response rating, Barnyardgrass [8, 19]: 90; Plant response rating, Barnyardgrass [8, 20]: 90; Plant response rating, Ragweed [9, 19]: 20; Plant response rating, Ragweed [9, 20]: 0; Plant response rating, Pigweed [10, 19]: 100; Plant response rating, Pigweed [10, 20]: 90; Plant response rating, Ryegrass, Italian [11, 19]: 50; Plant response rating, Ryegrass, Italian [11, 20]: 0; Plant response rating, Foxtail, Giant [12, 19]: 80; Plant response rating, Foxtail, Giant [12, 20]: 90; Plant response rating, Wheat [13, 19]: 20; Plant response rating, Corn [14, 19]: 40
